Measurements reported in patent US20050282869A1, “Use of a compound in the treatment of sleep disorders and the like, in providing refreshedness on waking and a method for the treatment of grogginess therewith” (priority 2001, published 2005).

Legend:
[1] = tested on: patients with temporary sleep disturbance; assay: Clinical trial: wrist actimetry (SDI, time to sleep onset); type: in vivo, human
Text: (§1) The efficacy of triprolidine in enabling a patient to feel refreshed or alert upon waking after taking triprolidine prior to sleeptime was investigated using patients with a history of sleep disorders and utilising triprolidine prepared in accordance with example 3.
(§2) The study herein utilised the following determination methods:— • (a) Karolinska scale as defined in: Int. J. Neuroscience 52 29-37 (1990); and validation: Sleep 17 (3) 236-41 (1994) • (b) Loughborough Sleep log as defined in: Sleep 17 (2)146-159 (1994); and Sleep 18 (2) 127-134 (1995) • (c) Actimetry—AW4 actimeters (Cambridge Neurotechnology) were worn continuously throughout the study. A button was pressed at night when the subject desired to go to sleep and again in the morning upon waking. The results of the actimeter study were analysed in the manner defined by Home et al (Sleep, 17(2); 146-159).
SDI % was calculated as follows:— [formula]
This is the measure of: • 1. The length of time it took to fall asleep • 2. Any awakenings throughout the sleep period • Expressed as a % of total time spent in bed. Study Objectives • To evaluate the effects of two doses of triprolidine compared with placebo. Study Design
(§3) A multiple-dose, placebo-controlled, parallel-group, double-blind, randomised study investigating the effects of 2.5 mg and 5 mg triprolidine in patients with temporary sleep disturbance.
(§4) Male and Female candidates aged 18 years and above were recruited to one of five research centres by means of local advertising. Candidates were screened by means of a telephone questionnaire and selected candidates invited for interview at the research centre. Key inclusion criteria used to select candidates for the study were: • A record of poor sleep at least 2 nights per week • A record of poor sleep for at least 1 week but not more than 3 months • Sleep disturbance not caused by underlying disease • No excess use of alcohol or drugs • Sleep disturbance affected daytime functioning
(§5) The candidates came to the research centre on Thursday or Friday and were fitted with a wrist actimeter (AW4 from Cambridge Technology) to establish a baseline measure for SDI and were provided with diary cards to record subjective assessments for the Loughborough Sleep Log and the Karolinska Sleepiness Scale. They returned to the investigational site on the Monday and were issued with the study compositions (2.5 mg triprolidine, 5 mg triprolidine or placebo). The investigator telephoned a central randomisation centre where the subject was randomised to a particular treatment group using a dynamic balanced randomisation algorithm. The subject was given three doses of their allocated study medication and instructed to take a single dose of two tablets 20 minutes before they intended to go to sleep on three consecutive evenings, commencing that evening. The diary cards for the Loughborough Sleep Log and Karolinska Sleepiness Scale were asked to be completed on waking.
(§6) 198 candidates completed the study, of whom 178 provided evaluable data. (61 placebo, 60 on 2.5 mg triprolidine and 57 on 5 mg triprolidine. The subjects on 2.5 mg dose took one tablet and placebo those on 5 mg dose took 2×2.5 mg tablets. The subjects on placebo took a dose to match the active treatments (2 tablets).
The study design used 3 groups. On average, the number of individuals in each of the 3 groups (placebo, 2.5 mg triprolidine and 5 mg triprolidine) was 60±10 patients.
In the trial, patients were tested during a seven day period and the results have been analysed for a mean of three days in the middle of this period. The effects of triprolidine at dose level 2.5 mg and 5.0 mg are compared with placebo in table 1.
Generally the treatment groups were well balanced in terms of the demographic data. Unless otherwise mentioned all group data was analysed using ANOVA. […]

[2] = tested on: patients with temporary sleep disturbance; assay: Clinical trial: Loughborough sleep log questionnaire; type: in vivo, human; conditions: for Loughborough Sleep Log: Awoke Very Refreshed or Refreshed Responses, %: % of patients
Text: as §1, §2, §3, §4, §5
Candidates were required to complete a questionnaire 15 minutes after awaking on the feeling of refreshedness assessed on a 5-point scale, the Loughborough sleep log.
as §6
Generally the treatment groups were well balanced in terms of the demographic data. Unless otherwise mentioned all group data was analysed using ANOVA. In two cases, namely, how the patient felt 15 minutes after awakening in the Loughborough Sleep Log and the Karolinska Sleepiness Scale at 20 minutes, the two variables were analysed using ANCOVA by including the weekend and the mean of Friday/Saturday/Sunday night as a covariate. The method was a closed test procedure (Williams' test). Each of the tests were to be conducted at the 5% level. The analysis of the secondary endpoints was similarly conducted using the Student's t-tests on parameter estimates taken from the analysis of variance model presented above. […]

[3] = tested on: patients with temporary sleep disturbance; assay: Clinical trial: Karolinska 9-point sleepiness scale; type: in vivo, human; conditions: for Karolinska 9-point scale (a) I feel extremely alert, very alert or alert, %: scales 1, 2 or 3
Text: as §1, §2, §3, §4, §5
A daytime sleepiness assessment was also made 20 minutes, 2 hours and 4 hours after awaking on the Karolinska 9-point scale, ie. the sleepiness scale.
as §6
Generally the treatment groups were well balanced in terms of the demographic data. Unless otherwise mentioned all group data was analysed using ANOVA. In two cases, namely, how the patient felt 15 minutes after awakening in the Loughborough Sleep Log and the Karolinska Sleepiness Scale at 20 minutes, the two variables were analysed using ANCOVA by including the weekend and the mean of Friday/Saturday/Sunday night as a covariate. The method was a closed test procedure (Williams' test). Each of the tests were to be conducted at the 5% level. The analysis of the secondary endpoints was similarly conducted using the Student's t-tests on parameter estimates taken from the analysis of variance model presented above.
Karolinska's sleepiness scale is set out below and the results for placebo, 2.5 and 5.0 mg doses of triprolidine are shown in tables 4 and 5. […]

volunteers = conditions: single doses 10 mg or 20 mg sustained release at bedtime; cited from earlier work
[4] = 2.5 mg, mean of the 3 nights, p<0.05
[5] = both treatments (2.5 mg and 5 mg), every treatment night

Cc1ccc(/C(=C\CN2CCCC2)c2ccccn2)cc1 [triprolidine]
SDI (%) (Sleep latency onset and Quality of sleep) (Actimeter), Mean ([1]; 2.5 mg dose 20 min before sleep, Mon): 11.33%
SDI (%) (Sleep latency onset and Quality of sleep) (Actimeter), Mean ([1]; 2.5 mg dose, Mean of 3): 11.56%
TTSO (min) (Time to Sleep onset) (Actimeter), Mean ([1]; 2.5 mg dose, Mean of 3): 15.53 min
TTSO (min) (Time to Sleep onset) (Actimeter), Mean ([1]; 2.5 mg dose, Mon): 16.22 min
SDI (%) (Sleep latency onset and Quality of sleep) (Actimeter), Mean ([1]; 2.5 mg dose, Tues): 12.15%
TTSO (min) (Time to Sleep onset) (Actimeter), Mean ([1]; 2.5 mg dose, Tues): 15.62 min
SDI (%) (Sleep latency onset and Quality of sleep) (Actimeter), Mean ([1]; 2.5 mg dose, Wed): 11.2%
SDI compared to placebo ([1]; 2.5 mg, mean of the 3 nights, p<0.01): significantly reduced
sleep latency onset compared to placebo [1, 4]: reduced
SDI (%) (Sleep latency onset and Quality of sleep) (Actimeter), Mean ([1]; 5 mg dose, Mean of 3): 12.23%
TTSO (min) (Time to Sleep onset) (Actimeter), Mean ([1]; 5 mg dose, Mean of 3): 16.93 min
SDI (%) (Sleep latency onset and Quality of sleep) (Actimeter), Mean ([1]; 5 mg dose, Mon): 11.72%
TTSO (min) (Time to Sleep onset) (Actimeter), Mean ([1]; 5 mg dose, Mon): 16.16 min
SDI (%) (Sleep latency onset and Quality of sleep) (Actimeter), Mean ([1]; 5 mg dose, Tues): 12.71%
TTSO (min) (Time to Sleep onset) (Actimeter), Mean ([1]; 5 mg dose, Tues): 17.88 min
SDI (%) (Sleep latency onset and Quality of sleep) (Actimeter), Mean ([1]; 5 mg dose, Wed): 11.81%
TTSO (min) (Time to Sleep onset) (Actimeter), Mean ([1]; 5 mg dose, Wed): 16.36 min
SDI compared with placebo [1, 5]: reduced
sleep latency onset compared with placebo [1, 5]: reduced
no of times woke up (Loughborough sleep log), Mean ([2]; 2.5 mg dose, Mean of 3): 1.22
time to fall asleep (min) (Loughborough sleep log), Mean ([2]; 2.5 mg dose, Mean of 3): 23.93 min
no of times woke up (Loughborough sleep log), Mean ([2]; 2.5 mg dose, Mon): 1.18
time to fall asleep (min) (Loughborough sleep log), Mean ([2]; 2.5 mg dose, Mon): 23.67 min
Loughborough Sleep Log: Awoke Very Refreshed or Refreshed Responses, % ([2]; 2.5 mg dose, Monday): 23%
no of times woke up (Loughborough sleep log), Mean ([2]; 2.5 mg dose, Tues): 1.37
time to fall asleep (min) (Loughborough sleep log), Mean ([2]; 2.5 mg dose, Tues): 24.44 min
Loughborough Sleep Log: Awoke Very Refreshed or Refreshed Responses, % ([2]; 2.5 mg dose, Tuesday): 23%
no of times woke up (Loughborough sleep log), Mean ([2]; 2.5 mg dose, Wed): 1.11
time to fall asleep (min) (Loughborough sleep log), Mean ([2]; 2.5 mg dose, Wed): 20.95 min
feeling of refreshedness 15 minutes after waking vs placebo (Loughborough sleep log) [2, 4]: more refreshed
no of times woke up (Loughborough sleep log), Mean ([2]; 5 mg dose, Mean of 3): 1.42
time to fall asleep (min) (Loughborough sleep log), Mean ([2]; 5 mg dose, Mean of 3): 26.5 min
no of times woke up (Loughborough sleep log), Mean ([2]; 5 mg dose, Mon): 1.49
time to fall asleep (min) (Loughborough sleep log), Mean ([2]; 5 mg dose, Mon): 22.02 min
no of times woke up (Loughborough sleep log), Mean ([2]; 5 mg dose, Tues): 1.42
time to fall asleep (min) (Loughborough sleep log), Mean ([2]; 5 mg dose, Tues): 32.08 min
Loughborough Sleep Log: Awoke Very Refreshed or Refreshed Responses, % ([2]; 5 mg dose, Tuesday): 8.2%
no of times woke up (Loughborough sleep log), Mean ([2]; 5 mg dose, Wed): 1.39
time to fall asleep (min) (Loughborough sleep log), Mean ([2]; 5 mg dose, Wed): 24.24 min
Loughborough Sleep Log: Awoke Very Refreshed or Refreshed Responses, % ([2]; 5 mg dose, Wednesday): 14.8%
individuals with response of sleeping extremely well or very well (morning log of the Loughborough sleep log) ([2]; dose not stated): over 35%
(b) I feel (i) sleepy, [and need to make] some effort or (ii) very sleepy, a great effort to keep awake, % ([3]; 2.5 mg dose, Wednesday, Karolinska scales 8 and 9, on waking): 6.5%
Karolinska 9-point scale (a) I feel extremely alert, very alert or alert, % ([3]; 2.5 mg dose, Wednesday, on waking): 21.0%
percentage of people feeling alert, very alert or extremely alert on waking vs placebo (Karolinska log) ([3]; 2.5 mg, mean of the 3 nights): greater percentage
percentage of people feeling sleepy or very sleepy on waking vs placebo (Karolinska log) ([3]; 2.5 mg, mean of the 3 nights): lower percentage
residual hangover effects/morning grogginess ([3]; 2.5 mg, mean of the 3 nights): no evidence of residual hangover effects/morning grogginess
Karolinska 9-point scale (a) I feel extremely alert, very alert or alert, % ([3]; 5 mg dose, Monday, on waking): 6.3%
Karolinska 9-point scale (a) I feel extremely alert, very alert or alert, % ([3]; 5 mg dose, Tuesday, on waking): 9.5%
sleep onset latency compared with placebo (volunteers): did not significantly alter
total sleep time compared with placebo (volunteers): no effect
wakefulness during sleep compared with placebo (volunteers): no effect
